The test system of data set [1] is optic nerve. Briefly: tissue or blood. It counts as cell-based. The settings on record: Rattus norvegicus; 30 μM of each drug; OGD 1 h; cGMP accumulation; compared with protection achieved by TTX; read-out: % protection accorded.
Data set [2] relates to sodium channels. Description: [14C]-labelled guanidine flux through sodium channels. It counts as biochemical, rat. The settings on record: inhibition of flux of [14C]-labelled guanidine through sodium channels.
Data set [3] relates to optic nerve axons. Description: Optic nerve pathology: axonal damage caused by the NO donor PAPA/NO. It counts as cell-based, rat. How it is done: Optic nerves were excised from adult Wistar rats (weighing 240-280 g) after decapitation. They comprised lengths of nerve (each about 9 mm long) running from immediately behind the eyeball to just in front of the optic chiasm. […] The flasks were held in a shaking water bath at 37° C.
(§1) After 1-2 h preincubation in aCSF, test nerves received the NO donor, PAPA/NO (1 mM) for 2 h or OGD was imposed by transferring the nerves for 1 h into aCSF lacking glucose and gassed with 5% CO2 in N2. Afterwards, the nerves were allowed a 90 min recovery period in aCSF. Putative protectant drugs were present from 15 min before until 15 min after the NO exposure or OGD.
After dehydration the tissues were embedded in Durcupan resin. Semithin (1 μm) sections were stained with either toluidine blue.
The data are expressed as mean number of axons greater than 2.5 μm in diameter per […] (±S.E.M.) in fields from 5-39 nerves.

The subject of data set [4] is optic nerve axons. Description: Optic nerve pathology: axonal damage caused by oxygen- and glucose-deprivation (OGD). It counts as cell-based, rat. The following applies: for Index of Axonopathy: mean ± S.E.M.; for Protection against axonal damage caused by OGD (in words): OGD-exposed rat optic nerve. How it is done:
Optic nerves were excised from adult Wistar rats (weighing 240-280 g) after decapitation. They comprised lengths of nerve (each about 9 mm long) running from immediately behind the eyeball to just in front of the optic chiasm. The nerves were incubated in Erlenmeyer flasks (50 ml capacity) containing 20 ml of an artificial CSF (aCSF) solution composed of (mM): NaCl (120) KCl (2.0), CaCl2 (2.0), NaHCO3 (26), KH2PO4 (1.18), MgSO4 (1.19) and glucose (11), continuously gassed with 95% O2/5% CO2. The flasks were held in a shaking water bath at 37° C.
as §1
The nerves were then fixed for 2 h in a mixture of 4% paraformaldehyde and 2.5% glutaraldehyde in 0.1 M phosphate buffer (pH 7.4), and post-fixed with 1% osmium tetroxide for 1 h. After dehydration the tissues were embedded in Durcupan resin. Semithin (1 μm) sections were stained with either toluidine blue.
To quantify the extent of axonal pathology under the light microscope, the degree of distension of the axon profiles was measured using an image analysis system as described previously (Garthwaite et al., (1999), Neuroscience, 94, 1219-1230). The data are expressed as mean number of axons greater than 2.5 μm in diameter per […] (±S.E.M.) in fields from 5-39 nerves.

Where [5] appears, read: PAPA/NO-exposed rat optic nerve.

Values joined by “and” are separate entries in the source; they are usually repeats but may differ in a detail not shown here. Equal entries are not always repeated. Where two headings read alike, the source gives them in different places. Where only a bound is given, the exact number is not on record here.

As a reminder, the melting point is the temperature, or range, at which the solid turns liquid. As a reminder, the IC50 is the concentration needed to halve the response being measured. Read a high IC50 as weaker potency.

Take `COC(=O)c1nn(Cc2ccccc2)c2ccccc12`: the melting point is 72 to 73 °C.
Take `Cc1cccc(NC(=O)c2cc(C)n(Cc3c(Cl)cccc3Cl)n2)c1` [1-(2,6-Dichloro-benzyl)-5-methyl-1H-pyrazole-3-carboxylic acid m-tolylamide]: in data set [1], the inhibition at 30 µM was 29%. Also, 7 µM corresponded to half-maximal inhibition in data set [2] (IC50).
Consider `Cc1cc(C(=O)Nc2ccc(C(C)(C)C)cc2)nn1C(C)(C)C` [1-tert-Butyl-5-methyl-1H-pyrazole-3-carboxylic acid (4-tert-butyl-phenyl)-amide], for which, in data set [1], the inhibition at 30 µM worked out at 39%. The IC50 in data set [2] came to 6 µM.
On to `CC(C)(C)c1cc(C(=O)NNC(=O)Nc2cccc(Cl)c2)n(Cc2ccccc2)n1` [2-Benzyl-5-tert-butyl-2H-pyrazole-3-carboxylic acid N′-(3-chlorophenylcarbamoyl) hydrazide], for which, in data set [1], the inhibition at 30 µM was determined as 12%. This compound yielded an IC50 in data set [2] of 5.8 µM.
Taken in the same sequence, the figures for `Cc1ccc(NC(=O)c2cc(C(C)(C)C)nn2Cc2ccccc2)cc1` [2-Benzyl-5-tert-butyl-2H-pyrazole-3-carboxylic acid p-tolylamide] were 66% and 2 µM.
As to `Cn1c(SCC(=O)c2ccc(Cl)cc2)nnc1-c1cc(C(C)(C)C)nn1Cc1ccc(F)cc1` [2-{5-[5-tert-Butyl-2-(4-fluoro-benzyl)-2H-pyrazol-3-yl]-4-methyl-4H-[1,2,4]triazol-3-ylsulfanyl}-1-(4-chloro-phenyl)-ethanone], the inhibition at 30 µM in data set [1] was 19%. Half-maximal inhibition in data set [2] (IC50) required 4.6 µM.
On the same counts, the results for `Cn1c(SCC(=O)c2ccccc2)nnc1-c1cc(C(C)(C)C)nn1Cc1ccc(F)cc1` [2-{5-[5-tert-Butyl-2-(4-fluoro-benzyl)-2H-pyrazol-3-yl]-4-methyl-4H-[1,2,4]triazol-3-ylsulfanyl}-1-phenyl-ethanone] are 18% and 19.5 µM.
As to `Cn1c(SCc2ccccc2)nnc1-c1cc(C(C)(C)C)nn1Cc1ccc(F)cc1` [3-Benzylsulfanyl-5-[5-tert-butyl-2-(4-fluoro-benzyl)-2H-pyrazol-3-yl]-4-methyl-4H-[1,2,4]triazole], in data set [1], the inhibition at 30 µM worked out at 72%. The IC50 in data set [2] was 12 µM and 12.3 µM.
As to `Cn1nc(C(C)(C)C)cc1C(=O)Nc1ccc(Cl)cc1` [5-tert-Butyl-2-methyl-2H-pyrazole-3-carboxylic acid (4-chloro-phenyl)-amide], in data set [1], the inhibition at 30 µM worked out at 62%. In data set [2], the IC50 was 6 µM.
Regarding `CN1CCN(c2ncc(-c3cc(Cl)cc(Cl)c3Cl)c(N)n2)CC1` [BW619C89, reference compound], the “Index of Axonopathy” value in data set [3] (PAPA/NO (1 mM) + drug at 100 μM, mean ± S.E.M.) was 26 ± 3 axons greater than 2.5 μm in diameter per 10^4 m^2; in data set [4] (OGD 1 h + drug at 100 μM), 53 ± 5 axons greater than 2.5 μm in diameter per 10^4 m^2. The “Effect on axonal pathology caused by NO (in words)” value in data set [3] (setting [5]) is reported as “eliminated”. In addition, in data set [4], the “Protection against axonal damage caused by OGD (in words)” value is “able to protect to an equivalent degree”.
In the case of `OCc1ccc(-c2nn(Cc3ccccc3)c3ccccc23)o1` [Example 4, 1-Benzyl-3-(5-hydroxymethyl-2-furyl)-1H-indazole], the “Index of Axonopathy” value in data set [3] (PAPA/NO (1 mM) + drug at 30 μM, mean ± S.E.M.) is given as 24 ± 4 axons greater than 2.5 μm in diameter per 10^4 m^2; in data set [4] (OGD 1 h + drug, concentration not given) it was 72 ± 15 axons greater than 2.5 μm in diameter per 10^4 m^2. Moreover, the “Effect on axonal pathology caused by NO (in words)” value in data set [3] (setting [5]) was “as effective as both these other agents”. The “Protection against axonal damage caused by OGD (in words)” value in data set [4] is “able to protect to an equivalent degree”. For the same compound, the IC50 in data set [2] turned out to be 17 µM.
For `Cn1nc(C(C)(C)C)cc1C(=O)Nc1ccc(C(C)(C)C)cc1` [Example 26, 5-tert-Butyl-2-methyl-2H-pyrazole-3-carboxylic acid (4-tert-butyl-phenyl)-amide], the inhibition at 30 µM in data set [1] was determined as 18%. Besides, the IC50 in data set [2] was below 9 µM; in data set [2] (listed as 5-tert-Butyl-2-methyl-2H-pyrazole-3-carboxylic acid (4-tert-butyl-phenyl)-amide), 2 µM.
In data set [2], `CC(=O)Nc1ccc(NC(=O)c2cc(C(C)(C)C)nn2Cc2ccc(Cl)cc2Cl)cc1` [Example 39, 5-tert-Butyl-2-(2,4-dichloro-benzyl)-2H-pyrazole-3-carboxylic acid (4-acetylamino-phenyl)-amide] had an IC50 of 24 µM.
Same read-out and setting: in the case of `CCn1nc(-c2cccs2)cc1C(=O)Nc1ccc(NC(C)=O)cc1` [Example 40, 2-Ethyl-5-thiophen-2-yl-2H-pyrazole-3-carboxylic acid (4-acetylamino-phenyl)-amide] it was below 9 µM; in that of `CC(C)(C)c1cc(C(=O)Nc2nc(-c3cccnc3)cs2)n(Cc2ccc(Cl)cc2Cl)n1` [Example 41, 5-tert-Butyl-2-(2,4-dichloro-benzyl)-2H-pyrazole-3-carboxylic acid (4-(pyridin-3-yl)thiazol-2-yl)-amide], 14 µM; in that of `CCn1nc(-c2cccs2)cc1C(=O)Nc1nc(-c2cccnc2)cs1` [Example 42, 2-Ethyl-5-thiophen-2-yl-2H-pyrazole-3-carboxylic acid (4-(pyridin-3-yl)thiazol-2-yl)-amide], below 9 µM.
The same measure, in the same setting: in the case of `CC(=O)Nc1ccc(NC(=O)c2cc(C(C)(C)C)nn2Cc2ccccc2)cc1` [Example 43, 2-Benzyl-5-tert-butyl-2H-pyrazole-3-carboxylic acid (4-acetylamino-phenyl)-amide] it was 16 µM; in that of `Cn1nc(C(C)(C)C)cc1C(=O)Nc1nc(-c2cccnc2)cs1` [Example 44, 5-tert-Butyl-2-methyl-2H-pyrazole-3-carboxylic acid (4-(pyridin-3-yl)thiazol-2-yl)-amide], below 9 µM.
The same measure, in the same setting: to `COc1ccc(Cc2noc(NC(=O)c3cc(C(C)(C)C)nn3C)n2)cc1` [Example 45, 5-tert-Butyl-2-methyl-2H-pyrazole-3-carboxylic acid [3-(4-methoxy-benzyl)-[1,2,4]oxadiazol-5-yl]-amide] belongs 19 µM; to `CCNCCCCc1nn(Cc2ccccc2)c2ccccc12` [Example 46, [N-Ethyl-(4-Aminobutyl)]-1-benzylindazole], 15.5 µM.
The compound `CN(C)CCNC(=O)c1nn(Cc2ccccc2)c2ccccc12` [Example 47, 1-Benzyl-3-[N-(2-N,N-dimethylaminoethyl)carboxamido]indazole] gave an IC50 in data set [2] of 63 µM.
In the case of `O=C(O)c1n[nH]c2ccccc12` [Example 48, Indazole-3-carboxylic acid], the melting point is 261 to 263 °C (dec.).
Turning to `NCc1noc(-c2nn(Cc3ccccc3)c3ccccc23)n1` [Example 51, 1-Benzyl-3-[3-aminomethyl-1,2,4-oxadiazol-yl]indazole], in data set [2], the half-inhibitory concentration (IC50) is 22.4 µM.
Compound `CN(C)Cc1noc(-c2nn(Cc3ccccc3)c3ccccc23)n1` [Example 52, 1-Benzyl-3-[3-(N,N-dimethylaminomethyl)-1,2,4oxadiazol-5-yl]indazole] displayed a melting point of 93 to 95 °C. This compound also showed an IC50 in data set [2] of 33.9 µM.
On to `CCCN(CCCN)/[N+]([O-])=N/O` [PAPA/NO], for which the “Index of Axonopathy” value in data set [3] (PAPA/NO (1 mM) for 2 h alone, no protectant, mean ± S.E.M.) is reported as 226 ± 22 axons greater than 2.5 μm in diameter per 10^4 m^2.
For the compound `NC1=N[C@H](O)[C@H]2[C@H]3O[C@]4(O)O[C@@H]([C@@H](O)[C@@]2(N1)[C@@H]4O)[C@]3(O)CO` [Tetrodotoxin], in data set [3], the “Effect on axonal pathology caused by NO (in words)” value is on record as “eliminated” and the “Index of Axonopathy” value was 17 ± 4 axons greater than 2.5 μm in diameter per 10^4 m^2.

Values taken from patent US7790761B2, “Blockade of voltage dependent sodium channels” (University College London, priority 2000, dated 2010).
